Measurements published in patent US8729091B2, “4-phenoxy-nicotinamide or 4-phenoxy-pyrimidine-5-carboxamide compounds” (Hoffmann-La Roche Inc., priority 2010, dated 2014).
pEC50: −log10 of the molar value.

Molecular target: T1, human GPBAR1 receptor (Homo sapiens, UniProt Q8TDU6)
T1 construct: expressed in transfected cells
T1 sequence (Q8TDU6 1-330): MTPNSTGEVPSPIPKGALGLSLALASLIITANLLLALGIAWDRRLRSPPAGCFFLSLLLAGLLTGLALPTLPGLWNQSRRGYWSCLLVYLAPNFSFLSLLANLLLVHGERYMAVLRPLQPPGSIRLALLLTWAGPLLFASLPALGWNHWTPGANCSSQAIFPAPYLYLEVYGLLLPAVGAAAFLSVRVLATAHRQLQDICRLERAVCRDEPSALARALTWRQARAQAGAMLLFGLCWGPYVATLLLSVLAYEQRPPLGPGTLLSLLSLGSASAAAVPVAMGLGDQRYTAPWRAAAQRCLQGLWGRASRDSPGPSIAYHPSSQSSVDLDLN
Assay: functional cAMP assay in CHO-dhfr(minus) cells expressing human GPBAR1 receptors
Type: cell-based
Settings: cAMP increase (TR-FRET) in CHO-dhfr(minus) cells expressing human GPBAR1; compounds incubated 30 min at 30° C.
Procedure: The final clone was verified by DNA sequence analysis. The plasmid was transfected into CHO cells deficient in dihydrofolate reductase activity (CHO-dhfr−) using Lipofectamine plus (Invitrogen). Clones were isolated in limited dilution conditions and identified by activities in the cAMP assay using lithocholic acid as agonist.
The growth medium was exchanged with Krebs Ringer Bicarbonate buffer with 1 mM IBMX and incubated at 30° C. for 30 min. Compounds were added to a final assay volume of 100 μl and incubated for 30 min at 30° C. […] The time-resolved energy transfer is measured by a TRF reader (Evotec Technologies GmbH, Hamburg Germany), equipped with a ND:YAG laser as excitation source.
EC50 values were determined using Activity Base analysis (ID Business Solution, Limited). […] Specificity for GPBAR1 was tested in non-transfected CHO cells in the same assay as above.

Structure (SMILES) | pEC50
O=C(c1cnccc1Oc1cc(Cl)ccc1Cl)N1CCN(C2CC2)c2cc(Cl)ccc21 [Example 11, (6-Chloro-4-cyclopropyl-3,4-dihydro-2H-quinoxalin-1-yl)-[4-(2,5-dichloro-phenoxy)-pyridin-3-yl]-methanone] | 8.00
CN(C)c1ccccc1N(C)C(=O)c1cnccc1Oc1cc(Cl)ccc1Cl [Example 16, 4-(2,5-Dichloro-phenoxy)-N-(2-dimethylamino-phenyl)-N-methyl-nicotinamide] | 7.40
COC(=O)c1cc(Cl)c(Oc2ccncc2C(=O)N2CCN(C3CC3)c3ccccc32)cc1Cl [Example 27, 2,5-Dichloro-4-[3-(4-cyclopropyl-3,4-dihydro-2H-quinoxaline-1-carbonyl)-pyridin-4-yloxy]-benzoic acid methyl ester] | 8.40
O=C(NC(CO)CO)c1cc(Cl)c(Oc2ccncc2C(=O)N2CCN(C3CC3)c3ccccc32)cc1Cl [Example 51, 2,5-Dichloro-4-[3-(4-cyclopropyl-3,4-dihydro-2H-quinoxaline-1-carbonyl)-pyridin-4-yloxy]-N-(2-hydroxy-1-hydroxymethyl-ethyl)-benzamide] | 6.52
Cc1cc(Oc2cc(Cl)c(Br)cc2Cl)c(C(=O)N2CCN(C3CC3)c3ccccc32)cn1 [Example 64, [4-(4-Bromo-2,5-dichloro-phenoxy)-6-methyl-pyridin-3-yl]-(4-cyclopropyl-3,4-dihydro-2H-quinoxalin-1-yl)-methanone] | 7.70
CN(C)c1ncccc1N(C)C(=O)c1cnccc1Oc1cc(Cl)ccc1Cl [Example 23, 4-(2,5-Dichloro-phenoxy)-N-(2-dimethylamino-pyridin-3-yl)-N-methyl-nicotinamide] | 6.70
Cc1cc(Oc2cc(Cl)c(C(=O)NCCC(=O)O)cc2Cl)c(C(=O)N2CCN(C3CC3)c3ccccc32)cn1 [Example 68, 3-{2,5-Dichloro-4-[5-(4-cyclopropyl-3,4-dihydro-2H-quinoxaline-1-carbonyl)-2-methyl-pyridin-4-yloxy]-benzoylamino}-propionic acid] | 6.70
Cc1cc(Oc2cc(Cl)c(C(=O)O)cc2Cl)c(C(=O)N2CCN(C3CC3)c3ccccc32)cn1 [Example 66, 2,5-Dichloro-4-[5-(4-cyclopropyl-3,4-dihydro-2H-quinoxaline-1-carbonyl)-2-methyl-pyridin-4-yloxy]-benzoic acid] | 6.52
CC(C)(Oc1cc(Cl)c(Oc2ccncc2C(=O)N2CCN(C3CC3)c3ccccc32)cc1Cl)C(=O)O [Example 61, 2-{2,5-Dichloro-4-[3-(4-cyclopropyl-3,4-dihydro-2H-quinoxaline-1-carbonyl)-pyridin-4-yloxy]-phenoxy}-2-methyl-propionic acid] | 6.40
O=C(c1cncnc1Oc1cc(Cl)ccc1Cl)N1CCNc2ccccc21 [Example 78, [4-(2,5-Dichloro-phenoxy)-pyrimidin-5-yl]-(3,4-dihydro-2H-quinoxalin-1-yl)-methanone] | 6.52
O=C(c1cnccc1Oc1cc(Cl)ccc1Cl)N1CCNc2ccccc21 [Example 3, [4-(2,5-Dichloro-phenoxy)-pyridin-3-yl]-(3,4-dihydro-2H-quinoxalin-1-yl)-methanone] | 7.00
O=C(NCCCS(=O)(=O)O)c1cc(Cl)c(Oc2ccncc2C(=O)N2CCN(C3CC3)c3ccccc32)cc1Cl [Example 37, 3-{2,5-Dichloro-4-[3-(4-cyclopropyl-3,4-dihydro-2H-quinoxaline-1-carbonyl)-pyridin-4-yloxy]-benzoylamino}-propane-1-sulfonic acid] | 6.05
COC(=O)c1cc(NC(=O)c2cc(Cl)c(Oc3ccncc3C(=O)N3CCN(C4CC4)c4ccccc43)cc2Cl)cn1C [Example 41, 4-{2,5-Dichloro-4-[3-(4-cyclopropyl-3,4-dihydro-2H-quinoxaline-1-carbonyl)-pyridin-4-yloxy]-benzoylamino}-1-methyl-1H-pyrrole-2-carboxylic acid methyl ester] | 7.00
CN1CCN(C(=O)c2cnccc2Oc2cc(Cl)ccc2Cl)c2ccccc21 [Example 4, [4-(2,5-Dichloro-phenoxy)-pyridin-3-yl]-(4-methyl-3,4-dihydro-2H-quinoxalin-1-yl)-methanone] | 8.52
NC(=O)CCNC(=O)c1cc(Cl)c(Oc2ccncc2C(=O)N2CCN(C3CC3)c3ccccc32)cc1Cl [Example 53, N-(2-Carbamoyl-ethyl)-2,5-dichloro-4-[3-(4-cyclopropyl-3,4-dihydro-2H-quinoxaline-1-carbonyl)-pyridin-4-yloxy]-benzamide] | 7.00
O=C(c1c[n+]([O-])ccc1Oc1cc(Cl)ccc1Cl)N1CCN(C2CC2)c2ccccc21 [Example 75, (4-Cyclopropyl-3,4-dihydro-2H-quinoxalin-1-yl)-[4-(2,5-dichloro-phenoxy)-1-oxy-pyridin-3-yl]-methanone] | 8.00

Structure (SMILES) | pEC50
COc1ccc(F)cc1N(C)C(=O)c1cnccc1Oc1cc(Cl)ccc1Cl [Example 12, 4-(2,5-Dichloro-phenoxy)-N-(5-fluoro-2-methoxy-phenyl)-N-methyl-nicotinamide] | 7.00
COc1ncccc1N(C)C(=O)c1cncnc1Oc1cc(Cl)ccc1Cl [Example 80, 4-(2,5-Dichloro-phenoxy)-pyrimidine-5-carboxylic acid (2-methoxy-pyridin-3-yl)-methyl-amide] | 7.05
O=C(c1cnccc1Oc1cc(Cl)ccc1Cl)N1CCCc2cc(F)c(F)cc21 [Example 2, [4-(2,5-Dichloro-phenoxy)-pyridin-3-yl]-(6,7-difluoro-3,4-dihydro-2H-quinolin-1-yl)-methanone] | 7.00
CCOC(=O)COc1cc(Cl)c(Oc2ccncc2C(=O)N2CCN(C3CC3)c3ccccc32)cc1Cl [Example 58, {2,5-Dichloro-4-[3-(4-cyclopropyl-3,4-dihydro-2H-quinoxaline-1-carbonyl)-pyridin-4-yloxy]-phenoxy}-acetic acid ethyl ester] | 7.52
O=C(c1cnccc1Oc1cc(Cl)c(Br)cc1Cl)N1CCN(C2CC2)c2ccccc21 [Example 26, [4-(4-Bromo-2,5-dichloro-phenoxy)-pyridin-3-yl]-(4-cyclopropyl-3,4-dihydro-2H-quinoxalin-1-yl)-methanone] | 8.40
O=C(O)CCNC(=O)c1cc(Cl)c(Oc2ccncc2C(=O)N2CCN(C3CC3)c3ccccc32)cc1Cl [Example 34, 3-{2,5-Dichloro-4-[3-(4-cyclopropyl-3,4-dihydro-2H-quinoxaline-1-carbonyl)-pyridin-4-yloxy]-benzoylamino}-propionic acid] | 6.52
O=C(NCc1nnn[nH]1)c1cc(Cl)c(Oc2ccncc2C(=O)N2CCN(C3CC3)c3ccccc32)cc1Cl [Example 39, 2,5-Dichloro-4-[3-(4-cyclopropyl-3,4-dihydro-2H-quinoxaline-1-carbonyl)-pyridin-4-yloxy]-N-(1H-tetrazol-5-ylmethyl)-benzamide] | 6.40
CN(CCS(=O)(=O)O)C(=O)c1cc(Cl)c(Oc2ccncc2C(=O)N2CCN(C3CC3)c3ccccc32)cc1Cl [Example 36, 2-({2,5-Dichloro-4-[3-(4-cyclopropyl-3,4-dihydro-2H-quinoxaline-1-carbonyl)-pyridin-4-yloxy]-benzoyl}-methyl-amino)-ethanesulfonic acid] | 6.52
Cc1cc(Oc2cc(Cl)c(C(=O)NCc3nnn[nH]3)cc2Cl)c(C(=O)N2CCN(C3CC3)c3ccccc32)cn1 [Example 72, 2,5-Dichloro-4-[5-(4-cyclopropyl-3,4-dihydro-2H-quinoxaline-1-carbonyl)-2-methyl-pyridin-4-yloxy]-N-(1H-tetrazol-5-ylmethyl)-benzamide] | 6.40
O=C(c1cnccc1Oc1cc(Cl)c(OCCO)cc1Cl)N1CCN(C2CC2)c2ccccc21 [Example 62, (4-Cyclopropyl-3,4-dihydro-2H-quinoxalin-1-yl)-{4-[2,5-dichloro-4-(2-hydroxy-ethoxy)-phenoxy]-pyridin-3-yl}-methanone] | 7.92
Cn1cc(NC(=O)c2cc(Cl)c(Oc3ccncc3C(=O)N3CCN(C4CC4)c4ccccc43)cc2Cl)cc1C(=O)O [Example 42, 4-{2,5-Dichloro-4-[3-(4-cyclopropyl-3,4-dihydro-2H-quinoxaline-1-carbonyl)-pyridin-4-yloxy]-benzoylamino}-1-methyl-1H-pyrrole-2-carboxylic acid] | 7.00
CN(C)c1ccc(Cl)cc1N(C)C(=O)c1cnccc1Oc1cc(Cl)ccc1Cl [Example 20, N-(5-Chloro-2-dimethylamino-phenyl)-4-(2,5-dichloro-phenoxy)-N-methyl-nicotinamide] | 6.40
O=C(c1cnccc1Oc1cc(Cl)ccc1Cl)N1CCN(CC2CC2)c2ccccc21 [Example 6, (4-Cyclopropylmethyl-3,4-dihydro-2H-quinoxalin-1-yl)-[4-(2,5-dichloro-phenoxy)-pyridin-3-yl]-methanone] | 8.52
O=C(Nc1cccc2c1NCCC2)c1cnccc1Oc1cc(Cl)ccc1Cl [Example 22, 4-(2,5-Dichloro-phenoxy)-N-(1,2,3,4-tetrahydro-quinolin-8-yl)-nicotinamide] | 6.05
O=C(c1c[n+]([O-])ccc1Oc1cc(Cl)ccc1Cl)N1CCCc2ccccc21 [Example 10, [4-(2,5-Dichloro-phenoxy)-1-oxy-pyridin-3-yl]-(3,4-dihydro-2H-quinolin-1-yl)-methanone] | 6.15
